From ChEMBL document CHEMBL1201862, “PubChem BioAssay data set” (2004) come the findings set out here.

Active and inactive are the calls of the source.

Experiment [1] in a line: HIV-1 Vif–A3G interaction blockers – biochemical, TR-FRET, GST-Vif 1-94, biotin-A3G peptide, dose response retest, primary screen (AID 1117319).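 Further: TR-FRET signal of purified GST-Vif binding a biotinylated A3G peptide; inhibitors lower the FRET signal by blocking Vif and A3G binding.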 Type of experiment: functional.
Experiment [2] in a line: viability loss in A549 lung cancer cells – cell-based, cherry-picks, […], cytotoxicity control, dose response (AID 1053119). Type of experiment: functional.
A short description of experiment [3]: reduced cellular PGC1a acetyl-lysine signal – cell-based, cherry-picked samples, dose response (AID 720514).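 Further: potency may reflect raised or lowered acetylation signal.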 Type of experiment: functional.
Experiment [4] is described as follows: SNU-C1 cell viability reduction, dose response, CellTiter-Glo luminescence (AID 1117323). The experiment is classed as functional, cell-based.
The nature of experiment [5]: cytotoxicity toward HCT116 cells – cell-based, CellTiter-Glo luminescence, IC50, dose response (AID 1117332). Type of experiment: functional. As to conditions: HCT-116.
Experiment [6] is described as follows: RKO cell viability reduction, dose response, CellTiter-Glo luminescence (AID 1117322). Type of experiment: functional.
Experiment [7] is described as follows: cytotoxicity toward Colo320 cells – cell-based, CellTiter-Glo luminescence, IC50, dose response (AID 1117334). Type of experiment: functional. The settings on record: COLO 320.
Experiment [8] is described as follows: cytotoxicity toward HT-29 cells – cell-based, CellTiter-Glo luminescence, IC50, dose response (AID 1117330). The experiment is classed as functional.
Experiment [9] is described as follows: CellTiter-Glo luminescence survival assay, SW480 colon tumor line, concentration-response curve, half-maximal inhibitory concentration (AID 1117338). The experiment is classed as functional.
Experiment [10] in a line: Reduced DLD-1 viability, concentration-response, CellTiter-Glo luminescence (AID 1117352). Type of experiment: functional.
A short description of experiment [11]: viability of PTEN-deleted HCT116 cells – cell-based, HCT116 PTEN knockout, dose response (AID 1047).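 Further: HCT116 colon tumor cells with PTEN knocked out; cells exposed to compound for 60 hours before readout; potency for loss of cell viability measured by luminescence.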 The experiment is classed as functional.
The nature of experiment [12]: viability of HCT116 lacking mutant beta-catenin – cell-based, human colon tumor, dose response (AID 1045).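 Further: HCT116 colon tumor cells with beta catenin knocked out; cells exposed to compound for 60 hours.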 The experiment is classed as functional.
For a further experiment, the target named is T1, Caspase-6 (Homo sapiens, UniProt P55212).
T1 sequence (P55212 whole entry): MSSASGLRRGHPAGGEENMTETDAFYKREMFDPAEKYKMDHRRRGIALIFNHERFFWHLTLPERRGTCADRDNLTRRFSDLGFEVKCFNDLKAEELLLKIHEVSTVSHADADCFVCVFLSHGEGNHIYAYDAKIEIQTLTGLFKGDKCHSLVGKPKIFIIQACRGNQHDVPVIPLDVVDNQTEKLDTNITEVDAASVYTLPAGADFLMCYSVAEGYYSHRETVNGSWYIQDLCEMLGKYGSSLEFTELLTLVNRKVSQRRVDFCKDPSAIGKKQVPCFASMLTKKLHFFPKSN
The experiment in a line: inhibition of CASP6 peptide cleavage – biochemical, VEID-R110 fluorescence, cherry-pick, dose response (AID 720632).

Experiment [13] is described as follows: viability loss in Vero cells – cytotoxicity control for Vif-APOBEC3G degradation inhibitor project, dose response (AID 1117358). The experiment is classed as functional. The settings on record: Vero.
Experiment [14] is described as follows: MITF Orthogonal Assay: SK-MEL-5 CTG Assay Measured in Cell-Based System Using Plate Reader - 2084-02_Inhibitor_Dose_DryPowder_Activity_Set7. The experiment is classed as functional.
Experiment [15] is described as follows: MITF: Counter assay: A375 proliferation Measured in Cell-Based System Using Plate Reader - 2084-03_Inhibitor_Dose_DryPowder_Activity_Set8. As to conditions: A-375. The experiment is classed as functional.
Experiment [16] is described as follows: inhibitors of TRPM1-promoter reporter in SK-MEL-5 – cell-based, luciferase, dry powder, set 8, MITF inhibitor project, dose response (AID 624430). Type of experiment: functional.
The nature of experiment [17]: blockade of melanocortin 4 receptor signaling – cell-based, plate reader, cherry pick, counter-screen for LGR2 antagonist project, dose response (AID 743444).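 Further: transfected HEK 293 cells stimulated with alpha-MSH peptide; potency of inhibitors of the alpha-MSH evoked signal.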 Type of experiment: functional.
Experiment [18] is described as follows: blockers of bursicon-stimulated LGR2 cAMP reporter – cell-based, HEK293, CRE-luciferase reporter, cherry pick, set 2, dose response (AID 743343).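 Further: transfected cells were stimulated with diluted bursicon conditioned medium after compound addition.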 Type of experiment: functional.
Experiment [19] can be described thus: A549 cell cytotoxicity, dose response, cytotoxicity control, plate reader, cherry-pick, antagonist series (AID 743412). Type of experiment: functional, cell-based.
Experiment [20] is described as follows: toxicity toward HepG2 liver cells – cell-based, plate reader, cherry-pick, antagonist series, cytotoxicity control, dose response (AID 743416). Type of experiment: functional.
Experiment [21] in a line: viability loss in HEK293 cells – cell-based, plate reader, cherry-picked samples, cytotoxicity control, dose response (AID 743446). Type of experiment: functional.
The next experiment has as its target Kallikrein-7 (Homo sapiens, UniProt P49862). Briefly: Fluorescence Intensity-based biochemical primary high throughput dose response assay to identify activators of kallikrein-7 (K7) zymogen.
Experiment [22] can be described thus: NIH-3T3 fibroblast cytotoxicity, dose response, cytotoxicity control, cell-based, fluorescence, Alamar Blue, secondary assay (AID 2327).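 Further: NIH-3T3 mouse fibroblasts cultured with fluconazole at 8 µg/mL.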 Type of experiment: functional.
Experiment [23] in a line: fluconazole-exposed Candida albicans growth modulators – fluorescence, retest, confirmation (AID 2467). The experiment is classed as functional, cell-based.
Experiment [24] can be described thus: IC50 of insulin release inhibition, rat insulinoma INS-1E line, 5 mM glucose, cell-based (AID 1117331). The experiment is classed as functional.
The target of experiment [25] is E3 ubiquitin-protein ligase Mdm2 (Homo sapiens, UniProt Q00987). The experiment in a line: MDM2-luc reporter signal enhancers, multi-concentration potency testing, MDM2 ubiquitin-protein ligase inhibitor program, whole-cell format, luminescence detection, 384-well microplate (AID 1394).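 Further: MDM2 E3 inhibitors raise luminescence so EC50 is for signal enhancement.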 Type of experiment: functional.
Chain of E3 ubiquitin-protein ligase Mdm2 (Q00987 whole entry): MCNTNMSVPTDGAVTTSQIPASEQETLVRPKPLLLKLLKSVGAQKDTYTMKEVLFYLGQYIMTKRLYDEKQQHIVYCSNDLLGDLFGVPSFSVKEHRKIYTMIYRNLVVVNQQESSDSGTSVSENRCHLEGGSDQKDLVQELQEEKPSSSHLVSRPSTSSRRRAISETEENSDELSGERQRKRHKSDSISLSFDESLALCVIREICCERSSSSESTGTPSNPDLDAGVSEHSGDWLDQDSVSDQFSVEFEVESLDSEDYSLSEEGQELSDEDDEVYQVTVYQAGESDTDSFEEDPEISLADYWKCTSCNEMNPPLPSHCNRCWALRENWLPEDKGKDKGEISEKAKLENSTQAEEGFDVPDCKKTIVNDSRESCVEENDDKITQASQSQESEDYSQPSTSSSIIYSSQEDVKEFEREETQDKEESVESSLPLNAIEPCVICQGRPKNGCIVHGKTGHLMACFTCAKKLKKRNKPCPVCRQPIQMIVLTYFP
Experiment [26] in a line: P. falciparum Dd2 growth inhibitors, dose response, SYBR Green, cherry-picked samples (AID 1159567). Type of experiment: functional, cell-based.
A short description of experiment [27]: toxicity to human hepatoma HepG2 cells – cell-based, cherry-picked samples, cytotoxicity control, dose response (AID 1159577). The experiment is classed as functional.
Experiment [28] can be described thus: viability loss in THP-1 monocytes – THP-1 cells, cytotoxicity control for Vif-APOBEC3G degradation inhibitor project, dose response (AID 1117359). As to conditions: THP-1. The experiment is classed as functional.
The target in another experiment is Genome polyprotein (dengue virus type 2, UniProt P29990). The experiment in a line: flavivirus cap methylation enzyme inhibition – biochemical, confirmation dose response, primary screen (AID 588689). Type of experiment: functional.
Chain of Genome polyprotein (P29990 2492-3391 limits assumed): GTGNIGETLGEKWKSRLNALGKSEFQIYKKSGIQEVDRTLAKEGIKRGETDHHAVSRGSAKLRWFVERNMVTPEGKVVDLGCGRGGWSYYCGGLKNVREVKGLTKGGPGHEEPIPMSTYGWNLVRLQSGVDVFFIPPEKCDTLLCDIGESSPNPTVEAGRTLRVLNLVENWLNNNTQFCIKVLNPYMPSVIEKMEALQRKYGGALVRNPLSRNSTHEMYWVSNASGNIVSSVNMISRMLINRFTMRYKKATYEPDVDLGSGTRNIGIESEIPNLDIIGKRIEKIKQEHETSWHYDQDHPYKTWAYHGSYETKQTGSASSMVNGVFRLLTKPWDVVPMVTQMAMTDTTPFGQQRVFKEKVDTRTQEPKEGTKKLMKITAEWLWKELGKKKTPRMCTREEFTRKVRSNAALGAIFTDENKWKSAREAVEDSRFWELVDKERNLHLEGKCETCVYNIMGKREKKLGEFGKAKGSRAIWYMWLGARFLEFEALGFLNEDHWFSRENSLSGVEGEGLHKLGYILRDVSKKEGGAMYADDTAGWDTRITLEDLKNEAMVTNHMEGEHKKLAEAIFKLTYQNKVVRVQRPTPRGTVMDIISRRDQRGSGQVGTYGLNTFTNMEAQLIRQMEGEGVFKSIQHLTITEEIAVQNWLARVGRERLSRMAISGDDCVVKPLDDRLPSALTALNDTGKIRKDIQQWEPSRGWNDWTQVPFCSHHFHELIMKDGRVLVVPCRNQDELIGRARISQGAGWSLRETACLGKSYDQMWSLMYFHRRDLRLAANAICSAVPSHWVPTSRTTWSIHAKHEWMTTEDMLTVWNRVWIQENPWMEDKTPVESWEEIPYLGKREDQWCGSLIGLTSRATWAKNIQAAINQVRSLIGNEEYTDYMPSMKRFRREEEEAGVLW
Another experiment has as its target T2, Protein Tat (Human immunodeficiency virus type 1 group M subtype B (isolate HXB2)(HIV-1), UniProt P04608).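 Further: tat binding to TAR RNA read out by fluorescence polarization.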
T2 sequence (P04608 whole entry): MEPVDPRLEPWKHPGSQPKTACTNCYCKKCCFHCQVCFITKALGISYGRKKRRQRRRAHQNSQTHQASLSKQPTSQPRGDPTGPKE
Type of experiment: functional.

The target in experiment [29] is T3, Apoptotic protease-activating factor 1 (Homo sapiens, UniProt O14727).
T3 sequence (O14727 whole entry): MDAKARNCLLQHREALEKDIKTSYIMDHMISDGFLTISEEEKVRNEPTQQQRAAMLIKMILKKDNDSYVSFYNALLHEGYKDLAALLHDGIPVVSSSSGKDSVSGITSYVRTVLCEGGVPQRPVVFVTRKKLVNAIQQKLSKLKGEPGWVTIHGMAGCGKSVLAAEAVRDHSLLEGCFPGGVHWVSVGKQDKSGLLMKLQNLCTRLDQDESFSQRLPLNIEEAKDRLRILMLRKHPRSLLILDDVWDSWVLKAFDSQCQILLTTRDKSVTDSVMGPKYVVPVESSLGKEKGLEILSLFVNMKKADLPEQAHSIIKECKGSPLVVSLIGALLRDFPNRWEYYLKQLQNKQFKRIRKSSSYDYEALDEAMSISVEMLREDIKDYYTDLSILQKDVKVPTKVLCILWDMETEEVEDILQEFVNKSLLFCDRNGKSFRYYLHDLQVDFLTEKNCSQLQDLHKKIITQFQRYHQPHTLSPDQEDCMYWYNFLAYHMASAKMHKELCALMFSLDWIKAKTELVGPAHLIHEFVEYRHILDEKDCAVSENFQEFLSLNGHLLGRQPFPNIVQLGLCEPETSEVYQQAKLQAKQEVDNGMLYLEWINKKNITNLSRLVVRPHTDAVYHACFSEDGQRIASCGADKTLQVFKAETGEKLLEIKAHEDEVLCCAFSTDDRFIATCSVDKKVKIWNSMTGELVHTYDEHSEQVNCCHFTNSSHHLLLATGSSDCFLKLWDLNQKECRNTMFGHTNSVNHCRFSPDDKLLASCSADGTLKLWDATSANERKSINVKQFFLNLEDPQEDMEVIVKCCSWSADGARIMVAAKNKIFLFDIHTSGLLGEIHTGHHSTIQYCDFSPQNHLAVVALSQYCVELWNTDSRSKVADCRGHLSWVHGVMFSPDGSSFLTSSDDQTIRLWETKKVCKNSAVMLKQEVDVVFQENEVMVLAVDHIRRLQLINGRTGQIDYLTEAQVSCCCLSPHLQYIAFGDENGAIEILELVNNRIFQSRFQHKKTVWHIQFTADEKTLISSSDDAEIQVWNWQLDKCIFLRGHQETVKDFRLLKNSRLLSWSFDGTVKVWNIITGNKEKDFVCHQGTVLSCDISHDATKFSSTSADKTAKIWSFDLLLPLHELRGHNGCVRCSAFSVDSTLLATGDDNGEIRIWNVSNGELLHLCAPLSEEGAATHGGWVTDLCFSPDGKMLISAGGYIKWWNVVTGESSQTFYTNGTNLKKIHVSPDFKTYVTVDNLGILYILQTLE
The experiment is classed as functional.

For experiment [30], the target named is Disintegrin and metalloproteinase domain-containing protein 17 (Homo sapiens, UniProt P78536). Briefly: inhibition of ADAM17 substrate cleavage – biochemical, quenched FRET substrate, counter-screen for ADAM10 exosite inhibitor project, dose response (AID 743253).
Chain of Disintegrin and metalloproteinase domain-containing protein 17 (P78536 whole entry, the tested form may be a part): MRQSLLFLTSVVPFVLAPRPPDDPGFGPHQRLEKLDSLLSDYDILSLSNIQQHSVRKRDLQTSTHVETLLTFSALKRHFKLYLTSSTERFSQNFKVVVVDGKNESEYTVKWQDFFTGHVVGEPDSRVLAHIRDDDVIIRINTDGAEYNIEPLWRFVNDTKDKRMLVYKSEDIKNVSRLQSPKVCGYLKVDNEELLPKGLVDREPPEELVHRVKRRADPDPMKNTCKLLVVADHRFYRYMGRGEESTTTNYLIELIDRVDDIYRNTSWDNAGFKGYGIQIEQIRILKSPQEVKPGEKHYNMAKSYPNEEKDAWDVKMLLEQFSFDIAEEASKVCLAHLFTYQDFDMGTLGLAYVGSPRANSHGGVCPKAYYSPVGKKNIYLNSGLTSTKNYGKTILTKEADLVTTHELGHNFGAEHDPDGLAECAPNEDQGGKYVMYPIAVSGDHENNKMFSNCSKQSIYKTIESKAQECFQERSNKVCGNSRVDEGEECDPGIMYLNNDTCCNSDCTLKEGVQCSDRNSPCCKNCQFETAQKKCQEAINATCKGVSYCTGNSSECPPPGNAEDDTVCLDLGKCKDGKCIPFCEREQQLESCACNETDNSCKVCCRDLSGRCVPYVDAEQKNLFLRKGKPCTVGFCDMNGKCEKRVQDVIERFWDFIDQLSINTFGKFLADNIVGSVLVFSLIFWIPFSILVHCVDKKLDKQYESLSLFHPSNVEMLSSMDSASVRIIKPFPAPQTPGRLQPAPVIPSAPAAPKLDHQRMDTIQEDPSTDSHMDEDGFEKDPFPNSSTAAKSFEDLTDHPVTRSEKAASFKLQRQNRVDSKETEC
A short description of experiment [31]: potency of ADAM10 substrate cleavage blockers – biochemical, QFRET, dose response (AID 743254).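 Further: ADAM10 enzyme with the DM2 quenched FRET peptide as substrate; EDANS fluorescence gain as the protease cuts the substrate; inhibitor potency against ADAM10 proteolytic activity.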
Experiment [32] can be described thus: viability inhibitors of stage V gametocytes – luminescence, dose response (AID 1117278).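 Further: gametocytes exposed to compound for 24 hours.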 The experiment is classed as functional, cell-based.
Experiment [33] in a line: viability loss in human Jurkat cells – cell-based, luminescence, cytotoxicity control for P. falciparum gametocyte viability project, dose response (AID 1117277).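 Further: potency reflects loss of cellular ATP meaning fewer viable cells.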 The experiment is classed as functional.

Chain of Kallikrein-7 (P49862 whole entry): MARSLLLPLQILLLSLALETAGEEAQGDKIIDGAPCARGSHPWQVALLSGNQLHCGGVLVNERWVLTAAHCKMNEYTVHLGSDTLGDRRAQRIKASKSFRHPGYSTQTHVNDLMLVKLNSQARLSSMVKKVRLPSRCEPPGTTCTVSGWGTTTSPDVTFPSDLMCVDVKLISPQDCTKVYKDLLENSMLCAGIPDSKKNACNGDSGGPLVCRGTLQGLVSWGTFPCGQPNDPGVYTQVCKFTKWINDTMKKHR

As for `CC1=C(C(=O)NCc2ccco2)C2(CCC(C)CC2)OC1=O` (stereo not given), the IC50 in experiment [1] was > 100 µM (active).

Consider `CN(C)C(=O)c1ccc(-c2ccc3c(c2)[C@H]2[C@H](CCN2C(=O)c2ccc(F)cc2)[C@@H](CO)N3C)cc1`, for which the AC50 in experiment [2] was > 47 µM (inactive).

`O=C(/C=C/c1cccs1)c1ccc(NC(=O)c2cccc(Br)c2)cc1`: the AC50 in [3] was 28.9 µM (active).

Regarding `CC(C)(C)CC(C)(C)c1cc(Cc2cc(C(C)(C)CC(C)(C)C)cc(-n3nc4ccccc4n3)c2O)c(O)c(-n2nc3ccccc3n2)c1` [BISOCTRIZOLE], the IC50 in [4], in [5], in experiment [6], in [7], in [8] and in experiment [9] was > 20 µM (inactive) each time. Moreover, the IC50 in experiment [10] is > 20 µM (inactive).

On to `CCOC(=O)c1c(C)oc2c1c(/C=N/Cc1ccccn1)c(O)c1ccccc12`, for which the EC50 in [11] is 25 µM (active); in experiment [12], 26.4 µM (active). For the same compound, on Caspase-6, the AC50 was 11 µM (active). Further, the cytotoxic concentration (CC50) in experiment [13] is 34.4 µM (active).

`CN1CCN(C2=C(Nc3ccc(F)cc3)C(=O)c3ccccc3C2=O)CC1`: the figures for the AC50 in experiment [14], in experiment [15] and in [16] were 12.1 µM (active), > 70 µM (inactive) and 8.28 µM (active), respectively.

For the compound `CCCc1c(-c2ccccc2F)ncn1CCc1ccccc1OC`, the AC50 was 17.4 µM (active) in [17]; 13.4 µM (active) in experiment [18]; 23.5 µM (active) in experiment [19]; 23.6 µM (active) in experiment [20]; 31.7 µM (active) in experiment [21].

`Cc1csc(CNc2ncnc3ccc(-c4ccoc4)cc23)c1`: the AC50 in experiment [17] was 0.489 µM (active); in experiment [18], 0.81 µM (active); in experiment [19], > 52 µM (inactive); in [20], 27.8 µM (active); in experiment [21], 28.9 µM (active).

For the compound `COc1ccc(-c2cc(C(=O)NC3CC3)c3ccccc3n2)cc1`, at Kallikrein-7, the EC50 is 86.4 µM (inactive).

For `C=CCO/C(O)=C1\C(C)=NC(SCC(=O)NC(=O)OCC)=C(C#N)C1c1cccnc1` (stereo not given), the EC50 is > 150 µM (inactive) in experiment [22], 6.32 µM (active) in [23] and 4.56 µM (active) at Kallikrein-7.

In the case of `CN(C)CC/C=C1\c2ccccc2Sc2ccc(Cl)cc21`, the IC50 in [24] was > 33.3 µM (inactive).

As for `Cc1ccccc1Nc1nnc(SCC2CCCCO2)s1` (stereo not given), the EC50 in [25] is recorded as 8.93 µM (not active).

As for `Fc1ccc(-c2ccc([C@@H]3[C@@H]4CN(Cc5ccccc5)C[C@H]3N4)cc2)cc1`, the figures for the AC50 in [26], in experiment [27] and in [3] were 4.07 µM (active), 8.83 µM (active) and 14.3 µM (active), respectively.

Take `CCc1ccc(CNc2ccc(O)cc2)cc1`: in experiment [28], the CC50 was 26.4 µM (active). In addition, the IC50 in [1] was > 50.6 µM (active); at Genome polyprotein, > 100 µM (active); at Protein Tat, 25.4 µM (inconclusive); in experiment [29], 27.5 µM (active).

As for `COc1cc(NC(=O)c2ccccc2)c(C)cc1NC(=O)CSc1nnc(-c2ccccc2F)n1-c1ccc(C)cc1`, the IC50 in experiment [30] and in experiment [31] was > 69.5 µM (inactive) in each case.

For the compound `CCOC(=O)C(C#N)C(c1cccnc1)c1c(C)n[nH]c1O` (stereo not given), the IC50 in [32] is > 109 µM (inactive); in [33], > 83.3 µM (inactive).
